Data reported in ChEMBL document CHEMBL1201862, “PubChem BioAssay data set” (2004).
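Step 1: Grow cells in 96-well plates. Step 2: Expose to compound for 48 hours at 5 concentrations. Step 3: Interpolate endpoints linearly; if unreached, use highest concentration. The concentration for 50% growth inhibition is given as GI50.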 Activity calls are given as the source filed them. Cut-off read from the data, not from the text of the source: active = GI50 up to about 1.1 µM and inactive = higher.

Assays:
Experiment in all cases: inhibition of tumour cell growth, NCI panel, 48 h
[1] = system: SK-MEL-2
[2] = system: ACHN
[3] = system: NCI-H460
[4] = system: U-251
[5] = system: DU-145
[6] = system: SR
[7] = system: SK-MEL-28
[8] = system: PC-3
[9] = system: SNB-75
[10] = system: OVCAR-3
[11] = system: KM12
[12] = system: MOLT-4
[13] = system: IGROV-1
[14] = system: HOP-92
[15] = system: MDA-N
[16] = system: UACC-257
[17] = system: MDA-MB-231
[18] = system: NCI/ADR-RES
[19] = system: HT-29
[20] = system: UACC-62
[21] = system: HCT-15
[22] = system: TK-10
[23] = system: CCRF-CEM
[24] = system: NCI-H23
[25] = system: OVCAR-5
[26] = system: M14
[27] = system: HOP-62
[28] = system: UO-31
[29] = system: SF-295
[30] = system: BT-549
[31] = system: T47D
[32] = system: RXF 393
[33] = system: SF-268
[34] = system: Hs-578T
[35] = system: MDA-MB-435
[36] = system: MCF7
[37] = system: A549
[38] = system: A498
[39] = system: SW-620
[40] = system: OVCAR-4
[41] = system: COLO 205
[42] = system: HCT-116
[43] = system: CAKI-1
[44] = system: HCC 2998
[45] = system: 786-0
[46] = system: SK-OV-3
[47] = system: SN12C
[48] = system: NCI-H522
[49] = system: Malme-3M
[50] = system: NCI-H226
[51] = system: SF-539
[52] = system: OVCAR-8
[53] = system: SK-MEL-5
[54] = system: EKVX
[55] = system: RPMI-8226
[56] = system: K562
[57] = system: LOX IMVI
[58] = system: SNB-19

Measured: GI50

O=C(c1ccco1)C1CC(c2ccc3ccccc3c2O)=NN1c1ccc([N+](=O)[O-])cc1[N+](=O)[O-] (configuration not stated)
active: [6] 1.01 µM
inactive: [1] 24.5 µM | [2] 20.5 µM | [3] 10.5 µM | [4] 28.4 µM | [5] 37.6 µM | [7] 40.6 µM | [8] 16.4 µM | [9] 12.5 µM | [10] 28.1 µM | [11] 3.95 µM | [12] 1.71 µM | [13] 14 µM | [14] 12.4 µM | [15] 28.6 µM | [16] 28.6 µM | [17] 20.7 µM | [18] 21.1 µM | [19] 13.7 µM | [20] 17.6 µM | [22] 30 µM | [23] 2.29 µM | [24] 22.7 µM | [25] 16 µM | [26] 22.9 µM | [27] 33.3 µM | [28] 16.6 µM | [29] 18.1 µM | [30] 29.7 µM | [31] 31.9 µM | [32] 29.9 µM | [33] 19.4 µM | [34] 15.7 µM | [35] 28.9 µM | [36] 12.8 µM | [37] 22.3 µM | [38] 23.7 µM | [39] 34.5 µM | [40] 15.6 µM | [41] 16.3 µM | [42] 23.1 µM | [43] 33.5 µM | [44] 27.7 µM | [45] 31 µM | [46] 28.1 µM | [47] 32.8 µM | [48] 7.98 µM | [49] 37 µM | [50] 20.6 µM | [51] 28 µM | [52] 23.8 µM
17.9 µM: [21]

O=C(CCc1cc(O)cc(O)c1)NCCc1cc(O)cc(OCc2ccccc2)c1
inactive: [1] 44.8 µM | [2] 24.7 µM | [3] 20.4 µM | [4] 41.8 µM | [53] 19.1 µM | [5] 33.1 µM | [6] 30.5 µM | [7] 54.8 µM | [8] 37.8 µM | [9] 27.2 µM | [10] 35.7 µM | [11] 34 µM | [12] 28.9 µM | [13] 59.3 µM | [14] 53.1 µM | [15] 27.5 µM | [16] 82.4 µM | [17] 29.8 µM | [18] > 100 µM | [19] 29 µM | [20] 32.1 µM | [22] > 100 µM | [23] > 10 µM | [24] 23.4 µM | [25] 63 µM | [26] 35.8 µM | [27] 43.6 µM | [54] 57.3 µM | [28] 22.2 µM | [29] 32.9 µM | [30] 29.6 µM | [55] 35.8 µM | [31] 34 µM | [32] 37 µM | [33] 29.6 µM | [34] 32.1 µM | [35] 36.2 µM | [36] 32.6 µM | [37] 42.3 µM | [38] > 100 µM | [39] 72.1 µM | [41] 48.3 µM | [42] 35.7 µM | [43] > 100 µM | [44] 20.5 µM | [45] 64.9 µM | [46] 59.4 µM | [47] 39.3 µM | [48] 36.5 µM | [50] 62.7 µM | [56] 36.1 µM | [51] 36.7 µM | [57] 33.7 µM | [52] 34.3 µM | [58] 26.4 µM
68.9 µM: [21]

O=C1c2scc(-c3ccccc3)c2-n2cccc21
34.1 µM: [21]
inactive: [1] 12.2 µM | [2] > 100 µM | [3] 31.1 µM | [4] 14.1 µM | [53] 15.1 µM | [5] 26.3 µM | [6] 13 µM | [7] 15.2 µM | [8] 11.7 µM | [9] 3.46 µM | [10] 16.3 µM | [11] 13.6 µM | [12] 13.4 µM | [13] 2.59 µM | [15] 16.1 µM | [16] 30.1 µM | [17] 14.8 µM | [18] 17.5 µM | [19] 10.9 µM | [20] 17.9 µM | [22] 49.8 µM | [23] 19.7 µM | [25] 21 µM | [26] 18 µM | [27] 16.3 µM | [54] 4.89 µM | [28] 22.5 µM | [29] 18.1 µM | [30] 25.9 µM | [55] 5 µM | [31] 17.7 µM | [32] 14 µM | [33] 14.3 µM | [34] 4.59 µM | [35] 14.5 µM | [36] 17.3 µM | [37] 18.5 µM | [38] 1.72 µM | [39] 16.3 µM | [40] 75.9 µM | [41] 17.8 µM | [42] 13.4 µM | [43] 11.4 µM | [44] 20.4 µM | [45] 13.9 µM | [46] 19.3 µM | [47] 29.8 µM | [48] 11.4 µM | [49] 16.4 µM | [50] 10.2 µM | [57] 14.4 µM | [52] 13.5 µM | [58] 15.9 µM
